In data set [1] the target is Prostaglandin G/H synthase 1 (Homo sapiens, UniProt P23219). In kind it is microsomes, U-937, Microsome.
Description: Inhibition of COX-1 in U-937 (human lymphoma) cell microsomes.
Data set [2] is described as follows: Maximum concentration for the bioavailability at a dose of 20 mg/kg administered orally. Set-up: dose 20 mg/kg, route oral. Conditions: in vivo, po. It counts as ADME, organism-based.
The test system of data set [3] is Rattus norvegicus. The data set is described as follows: Potency in rat paw edema assay. It counts as functional.
Data set [4] can be described thus: Slow clearance (CL) was determined. In kind it is ADME, organism-based. The following applies: in vivo.
For data set [5], the species on record is Rattus norvegicus. Description: Potency by rat hyperalgesia assay. It counts as functional.
The species entered for data set [6] is Rattus norvegicus. Description: Potency by rat pyrexia assay. In kind it is functional.
The species entered for data set [7] is Rattus norvegicus. The data set is described as follows: Potency by rat adjuvant arthritis assay. In kind it is functional.

A value given as a limit tells only on which side of the number the result lay.

The record followed here is ChEMBL document CHEMBL1131878, “Synthesis and biological evaluation of 3-heteroaryloxy-4-phenyl-2(5H)-furanones as selective COX-2 inhibitors” (Bioorg Med Chem Lett, 1999).

Chain of Prostaglandin G/H synthase 1 (P23219 whole entry): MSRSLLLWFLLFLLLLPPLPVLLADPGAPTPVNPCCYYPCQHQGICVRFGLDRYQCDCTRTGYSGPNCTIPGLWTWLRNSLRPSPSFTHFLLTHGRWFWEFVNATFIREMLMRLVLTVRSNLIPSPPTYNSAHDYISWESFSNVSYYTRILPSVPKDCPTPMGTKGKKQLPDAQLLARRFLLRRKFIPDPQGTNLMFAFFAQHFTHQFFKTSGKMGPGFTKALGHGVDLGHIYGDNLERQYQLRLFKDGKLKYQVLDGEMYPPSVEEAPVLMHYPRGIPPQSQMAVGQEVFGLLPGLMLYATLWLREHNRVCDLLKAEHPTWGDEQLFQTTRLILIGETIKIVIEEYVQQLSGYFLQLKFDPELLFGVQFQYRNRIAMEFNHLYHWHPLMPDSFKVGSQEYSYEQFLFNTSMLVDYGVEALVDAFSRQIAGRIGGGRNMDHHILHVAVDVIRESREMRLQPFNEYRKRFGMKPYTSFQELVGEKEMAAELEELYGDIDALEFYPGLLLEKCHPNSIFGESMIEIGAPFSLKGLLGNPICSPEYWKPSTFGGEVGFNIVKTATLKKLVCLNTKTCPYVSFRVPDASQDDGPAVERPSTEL

As usually defined, the IC50 is the concentration that gives 50% inhibition. High values mean a need for much substance, low ones inhibition by little substance. In the case of `CC1(C)OC(=O)C(Oc2cccnc2)=C1c1ccc(S(C)(=O)=O)cc1`, the IC50 in data set [1] is more than 30 µM.
A word on the Cmax: it is the highest concentration seen after dosing. For orientation: ED50 means the midpoint of the dose-response relation. `CC1(C)OC(=O)C(Oc2ccc(Cl)cn2)=C1c1ccc(S(C)(=O)=O)cc1`: the Cmax in data set [2] was 16 µM. In addition, the ED50 with Rattus norvegicus [3] was 0.75 mg/kg. In data set [4], the CL is 4.8.
`CC1(C)OC(=O)C(Oc2cccc(Cl)n2)=C1c1ccc(S(C)(=O)=O)cc1` displayed an IC50 in data set [1] of more than 10 µM.
Still for that read-out and setting: as for `CC1(C)OC(=O)C(Oc2ncnc3ccccc23)=C1c1ccc(S(C)(=O)=O)cc1`, the figure is more than 10 µM.
Still for that read-out and setting: as for `CC1(C)OC(=O)C(Oc2cccc3cnccc23)=C1c1ccc(S(C)(=O)=O)cc1`, the figure is 3 µM; as for `CC1(C)OC(=O)C(Oc2ccc3[nH]ccc3c2)=C1c1ccc(S(C)(=O)=O)cc1`, 1 µM.
Take `CC1(C)OC(=O)C(Oc2ccc(Br)cn2)=C1c1ccc(S(C)(=O)=O)cc1`: in data set [1], the IC50 was 5.6 µM. Also, the ED50 was determined as 0.6 mg/kg in the data set filed under Rattus norvegicus [5], 0.3 mg/kg in the data set listed under Rattus norvegicus [6], 0.86 mg/kg with Rattus norvegicus [3] and 0.2 mg/kg in the data set filed under Rattus norvegicus [7].
For `CC1(C)OC(=O)C(Oc2ccc3sccc3c2)=C1c1ccc(S(C)(=O)=O)cc1`, in data set [1], the IC50 was less than 0.3 µM.
On the same count and under the same terms, as for `CC1(C)OC(=O)C(Oc2ncccn2)=C1c1ccc(S(C)(=O)=O)cc1`, the figure is more than 10 µM; as for `CC1(C)OC(=O)C(Oc2ncccc2Cl)=C1c1ccc(S(C)(=O)=O)cc1`, 1 µM; as for `CC1(C)OC(=O)C(Oc2ncc(Cl)cc2Cl)=C1c1ccc(S(C)(=O)=O)cc1`, 0.3 µM.
Still for that read-out and setting: then `CC1(C)OC(=O)C(Oc2ccc(C3CC3)cn2)=C1c1ccc(S(C)(=O)=O)cc1`, with 3 µM; and `CC1(C)OC(=O)C(Oc2ccc3ccccc3n2)=C1c1ccc(S(C)(=O)=O)cc1`, with 3 µM; and `Cc1ccc(OC2=C(c3ccc(S(C)(=O)=O)cc3)C(C)(C)OC2=O)nc1`, with 3 µM.
Still for that read-out and setting: as for `CC1(C)OC(=O)C(Oc2ccc(F)cn2)=C1c1ccc(S(C)(=O)=O)cc1`, the figure is 4.6 µM; as for `CC1(C)OC(=O)C(Oc2ccncc2)=C1c1ccc(S(C)(=O)=O)cc1`, more than 100 µM.
For `CS(=O)(=O)c1ccc(C2=C(c3ccccc3)C(=O)OC2)cc1` [ROFECOXIB], the ED50 in the data set on Rattus norvegicus [3] stood at 1.5 mg/kg.
As to `CC1(C)OC(=O)C(Oc2cnccn2)=C1c1ccc(S(C)(=O)=O)cc1`, the IC50 in data set [1] is more than 10 µM.
As for `CC1(C)OC(=O)C(Oc2ccccn2)=C1c1ccc(S(C)(=O)=O)cc1`, the IC50 in data set [1] was more than 10 µM. This compound also yielded an ED50 in the data set on Rattus norvegicus [3] of more than 10 mg/kg.
